Results published in ChEMBL document CHEMBL1146011, “Diaryl substituted pyrrolidinones and pyrrolones as 5-HT2C inhibitors: synthesis and biological evaluation” (Bioorg Med Chem Lett, 2006).
Active and inactive are the calls of the source. The rule behind the calls is not given here.

Key:
[1] = target: Beta-2 adrenergic receptor (Homo sapiens) (UniProt P07550); experiment: Binding affinity to human adrenergic beta-2 receptor
[2] = target: D(2) dopamine receptor (Homo sapiens) (UniProt P14416); experiment: Binding affinity to human dopamine D2 receptor
[3] = target: D(3) dopamine receptor (Homo sapiens, UniProt P35462); experiment: Binding affinity to human dopamine D3 receptor
[4] = target: T1, Adrenergic receptor alpha-1 (Homo sapiens, UniProt P35348+P25100+P35368); experiment: Binding affinity to human adrenergic alpha-1 receptor; type: protein assay
T1 sequence (P35348 whole entry): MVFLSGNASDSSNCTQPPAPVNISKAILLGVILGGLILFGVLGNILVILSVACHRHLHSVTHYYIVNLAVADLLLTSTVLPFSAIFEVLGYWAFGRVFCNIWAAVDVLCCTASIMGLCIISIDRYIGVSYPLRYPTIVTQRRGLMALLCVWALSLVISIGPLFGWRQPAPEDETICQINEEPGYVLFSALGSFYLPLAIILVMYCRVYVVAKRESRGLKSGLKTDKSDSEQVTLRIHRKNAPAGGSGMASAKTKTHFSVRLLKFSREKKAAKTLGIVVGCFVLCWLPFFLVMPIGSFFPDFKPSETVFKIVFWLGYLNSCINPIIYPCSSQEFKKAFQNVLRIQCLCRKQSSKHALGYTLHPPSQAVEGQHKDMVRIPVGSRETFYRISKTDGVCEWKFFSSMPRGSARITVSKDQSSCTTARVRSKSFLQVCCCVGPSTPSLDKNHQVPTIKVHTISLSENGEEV
T1 sequence (P25100 whole entry): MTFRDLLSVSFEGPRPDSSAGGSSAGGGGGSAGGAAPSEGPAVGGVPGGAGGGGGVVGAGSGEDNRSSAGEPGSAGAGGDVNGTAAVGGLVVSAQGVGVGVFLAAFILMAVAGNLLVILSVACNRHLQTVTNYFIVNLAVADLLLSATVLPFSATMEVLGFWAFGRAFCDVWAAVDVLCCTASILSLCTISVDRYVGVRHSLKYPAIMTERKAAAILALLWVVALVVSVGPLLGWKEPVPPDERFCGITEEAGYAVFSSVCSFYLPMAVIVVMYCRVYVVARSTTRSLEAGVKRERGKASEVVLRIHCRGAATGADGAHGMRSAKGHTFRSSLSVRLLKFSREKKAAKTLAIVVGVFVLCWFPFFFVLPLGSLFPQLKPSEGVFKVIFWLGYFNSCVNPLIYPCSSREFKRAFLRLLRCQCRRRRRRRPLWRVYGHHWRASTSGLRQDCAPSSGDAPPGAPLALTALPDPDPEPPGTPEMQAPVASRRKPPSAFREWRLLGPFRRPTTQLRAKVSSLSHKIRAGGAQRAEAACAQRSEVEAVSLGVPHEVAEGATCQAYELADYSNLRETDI
T1 sequence (P35368 whole entry): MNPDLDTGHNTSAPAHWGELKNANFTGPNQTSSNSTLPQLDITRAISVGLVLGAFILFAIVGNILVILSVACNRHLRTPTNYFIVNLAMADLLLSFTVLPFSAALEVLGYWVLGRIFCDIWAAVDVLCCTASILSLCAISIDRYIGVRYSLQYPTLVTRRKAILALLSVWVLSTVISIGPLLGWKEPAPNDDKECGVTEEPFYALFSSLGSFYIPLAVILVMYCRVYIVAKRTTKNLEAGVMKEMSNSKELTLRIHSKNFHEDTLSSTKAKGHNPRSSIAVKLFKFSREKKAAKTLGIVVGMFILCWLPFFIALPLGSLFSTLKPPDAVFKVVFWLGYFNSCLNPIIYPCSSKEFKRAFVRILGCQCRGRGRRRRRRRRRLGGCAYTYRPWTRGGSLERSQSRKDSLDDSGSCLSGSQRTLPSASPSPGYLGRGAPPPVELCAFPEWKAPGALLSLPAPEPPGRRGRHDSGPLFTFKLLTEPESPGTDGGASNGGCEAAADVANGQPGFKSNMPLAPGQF

[5] = Plasma clearance in orally dosed rat; type: ADME, organism-based; details: po
[6] = tested on: Rattus norvegicus; experiment: Volume of distribution in orally dosed rat; type: ADME, organism-based; details: in vivo, po
[7] = Half life in orally dosed rat; type: ADME, organism-based; details: in vivo, po
[8] = Bioavailability in orally dosed rat; type: ADME, organism-based; details: in vivo, po
[9] = Ratio of drug level in brain against plasma in orally dosed rat; type: ADME, organism-based; details: po, read-out: BPR
[10] = tested on: Rattus norvegicus; experiment: Drug level in orally dosed rat brain; type: ADME, organism-based; details: in vivo, po
[11] = target: 5-hydroxytryptamine receptor 7 (Homo sapiens, UniProt P34969); experiment: Binding affinity to human 5HT7 receptor
[12] = target: 5-hydroxytryptamine receptor 6 (Homo sapiens, UniProt P50406); experiment: Binding affinity to human 5HT6 receptor
[13] = target: T2, 5-hydroxytryptamine receptor 2C (Homo sapiens, UniProt P28335); experiment: Binding affinity to human 5HT2C receptor
T2 sequence (P28335 whole entry): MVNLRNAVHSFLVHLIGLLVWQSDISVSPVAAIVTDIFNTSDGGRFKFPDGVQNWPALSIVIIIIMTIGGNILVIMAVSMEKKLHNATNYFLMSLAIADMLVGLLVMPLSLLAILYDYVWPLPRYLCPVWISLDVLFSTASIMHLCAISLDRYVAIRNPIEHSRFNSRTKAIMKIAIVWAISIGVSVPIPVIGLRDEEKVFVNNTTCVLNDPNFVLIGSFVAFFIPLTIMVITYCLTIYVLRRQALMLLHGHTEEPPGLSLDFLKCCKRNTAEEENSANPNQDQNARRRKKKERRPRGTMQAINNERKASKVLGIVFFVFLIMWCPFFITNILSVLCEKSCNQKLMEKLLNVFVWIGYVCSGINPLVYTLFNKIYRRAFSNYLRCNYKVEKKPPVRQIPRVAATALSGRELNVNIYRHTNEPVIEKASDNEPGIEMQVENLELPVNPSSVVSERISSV

[14] = target: 5-hydroxytryptamine receptor 2A (Homo sapiens, UniProt P28223); experiment: Binding affinity to human 5HT2A receptor
[15] = target: 5-hydroxytryptamine receptor 2B (Homo sapiens, UniProt P41595); experiment: Binding affinity to human 5HT2B receptor
[16] = target: T3, 5-hydroxytryptamine receptor 1A (Homo sapiens, UniProt P08908); experiment: Binding affinity to human 5HT1A receptor
T3 sequence (P08908 whole entry): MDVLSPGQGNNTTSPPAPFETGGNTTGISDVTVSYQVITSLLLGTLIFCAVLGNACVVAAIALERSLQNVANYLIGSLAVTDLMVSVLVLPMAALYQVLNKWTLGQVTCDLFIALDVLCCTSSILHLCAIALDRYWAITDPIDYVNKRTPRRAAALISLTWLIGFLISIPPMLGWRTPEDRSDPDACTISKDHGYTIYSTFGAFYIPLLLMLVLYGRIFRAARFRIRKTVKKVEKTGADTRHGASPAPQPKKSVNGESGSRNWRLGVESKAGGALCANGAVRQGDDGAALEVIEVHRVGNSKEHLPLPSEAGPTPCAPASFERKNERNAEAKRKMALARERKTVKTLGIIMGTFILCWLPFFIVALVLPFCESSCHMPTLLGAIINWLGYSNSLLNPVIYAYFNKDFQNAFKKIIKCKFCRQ

[17] = target: 5-hydroxytryptamine receptor 1B (Homo sapiens, UniProt P28222); experiment: Binding affinity to human 5HT1B receptor
[18] = target: 5-hydroxytryptamine receptor 1D (Homo sapiens, UniProt P28221); experiment: Binding affinity to human 5HT1D receptor
Chain of 5-hydroxytryptamine receptor 1D (P28221 whole entry): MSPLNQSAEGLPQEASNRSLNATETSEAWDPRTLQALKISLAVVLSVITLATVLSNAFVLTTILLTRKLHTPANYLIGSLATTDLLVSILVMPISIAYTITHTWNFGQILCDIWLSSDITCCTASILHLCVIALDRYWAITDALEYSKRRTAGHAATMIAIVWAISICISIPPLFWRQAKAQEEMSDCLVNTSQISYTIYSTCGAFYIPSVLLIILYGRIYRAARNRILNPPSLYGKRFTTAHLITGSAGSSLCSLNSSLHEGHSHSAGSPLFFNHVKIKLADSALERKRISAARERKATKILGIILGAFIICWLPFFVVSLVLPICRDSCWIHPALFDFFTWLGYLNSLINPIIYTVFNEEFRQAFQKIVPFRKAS

Chain of 5-hydroxytryptamine receptor 2B (P41595 whole entry): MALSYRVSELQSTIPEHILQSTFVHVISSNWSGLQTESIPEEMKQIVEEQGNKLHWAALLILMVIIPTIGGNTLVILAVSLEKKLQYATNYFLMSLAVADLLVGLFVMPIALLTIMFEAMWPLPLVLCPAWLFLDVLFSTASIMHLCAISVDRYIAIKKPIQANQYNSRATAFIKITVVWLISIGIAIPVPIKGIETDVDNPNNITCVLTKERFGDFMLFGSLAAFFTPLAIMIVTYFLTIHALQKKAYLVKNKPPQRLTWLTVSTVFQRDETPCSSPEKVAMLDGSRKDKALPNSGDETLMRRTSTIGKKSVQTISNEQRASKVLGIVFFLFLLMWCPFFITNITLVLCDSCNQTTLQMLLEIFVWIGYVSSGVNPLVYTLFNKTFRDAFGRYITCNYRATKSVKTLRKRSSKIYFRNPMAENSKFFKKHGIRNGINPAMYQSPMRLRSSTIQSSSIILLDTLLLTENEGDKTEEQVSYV
Chain of 5-hydroxytryptamine receptor 6 (P50406 whole entry): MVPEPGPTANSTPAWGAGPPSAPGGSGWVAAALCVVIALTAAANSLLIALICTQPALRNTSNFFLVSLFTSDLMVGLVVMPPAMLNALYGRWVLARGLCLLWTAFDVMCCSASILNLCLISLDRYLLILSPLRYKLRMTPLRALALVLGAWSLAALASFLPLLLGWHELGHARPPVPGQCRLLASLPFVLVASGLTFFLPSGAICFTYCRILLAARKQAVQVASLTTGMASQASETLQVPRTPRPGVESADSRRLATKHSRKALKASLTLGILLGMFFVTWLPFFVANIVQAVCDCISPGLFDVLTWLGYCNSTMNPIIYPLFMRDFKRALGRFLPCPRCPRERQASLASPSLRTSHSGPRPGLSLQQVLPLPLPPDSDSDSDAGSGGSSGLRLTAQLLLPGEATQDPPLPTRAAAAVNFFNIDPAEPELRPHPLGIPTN
Chain of Beta-2 adrenergic receptor (Homo sapiens) (P07550 whole entry, looked up): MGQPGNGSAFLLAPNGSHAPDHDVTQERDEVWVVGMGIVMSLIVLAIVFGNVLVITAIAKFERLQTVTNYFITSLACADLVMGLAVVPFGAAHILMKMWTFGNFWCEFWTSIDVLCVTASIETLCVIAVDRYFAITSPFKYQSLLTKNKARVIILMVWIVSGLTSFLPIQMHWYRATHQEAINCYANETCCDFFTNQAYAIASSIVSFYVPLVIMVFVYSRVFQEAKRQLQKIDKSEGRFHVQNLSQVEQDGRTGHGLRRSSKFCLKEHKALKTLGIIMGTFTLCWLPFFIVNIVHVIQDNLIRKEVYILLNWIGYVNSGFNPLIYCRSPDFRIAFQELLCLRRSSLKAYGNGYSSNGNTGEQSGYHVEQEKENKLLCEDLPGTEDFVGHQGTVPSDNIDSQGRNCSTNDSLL
Chain of 5-hydroxytryptamine receptor 2A (P28223 whole entry): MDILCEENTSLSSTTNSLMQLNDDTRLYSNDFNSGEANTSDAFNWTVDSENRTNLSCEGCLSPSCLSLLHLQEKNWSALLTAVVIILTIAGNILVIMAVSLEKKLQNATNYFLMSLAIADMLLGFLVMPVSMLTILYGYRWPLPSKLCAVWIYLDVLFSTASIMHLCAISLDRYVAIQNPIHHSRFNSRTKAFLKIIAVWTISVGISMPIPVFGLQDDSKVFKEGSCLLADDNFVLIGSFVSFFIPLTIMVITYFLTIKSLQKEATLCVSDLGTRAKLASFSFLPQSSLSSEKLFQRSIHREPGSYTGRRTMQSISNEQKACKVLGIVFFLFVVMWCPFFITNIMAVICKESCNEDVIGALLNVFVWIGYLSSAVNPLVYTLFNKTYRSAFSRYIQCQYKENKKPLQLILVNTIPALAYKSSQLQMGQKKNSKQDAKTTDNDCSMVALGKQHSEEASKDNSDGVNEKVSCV
Chain of D(3) dopamine receptor (P35462 whole entry): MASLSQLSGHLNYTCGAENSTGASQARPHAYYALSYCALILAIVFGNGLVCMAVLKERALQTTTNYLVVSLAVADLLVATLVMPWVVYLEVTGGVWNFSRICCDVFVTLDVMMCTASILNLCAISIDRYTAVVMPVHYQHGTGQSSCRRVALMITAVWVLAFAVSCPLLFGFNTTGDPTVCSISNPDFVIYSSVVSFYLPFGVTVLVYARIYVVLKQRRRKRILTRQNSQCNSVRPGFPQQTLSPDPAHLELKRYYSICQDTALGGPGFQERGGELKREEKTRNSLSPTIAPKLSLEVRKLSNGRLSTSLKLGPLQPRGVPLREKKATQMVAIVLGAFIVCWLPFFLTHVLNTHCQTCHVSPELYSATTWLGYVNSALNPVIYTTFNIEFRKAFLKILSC
Chain of D(2) dopamine receptor (Homo sapiens) (P14416 whole entry): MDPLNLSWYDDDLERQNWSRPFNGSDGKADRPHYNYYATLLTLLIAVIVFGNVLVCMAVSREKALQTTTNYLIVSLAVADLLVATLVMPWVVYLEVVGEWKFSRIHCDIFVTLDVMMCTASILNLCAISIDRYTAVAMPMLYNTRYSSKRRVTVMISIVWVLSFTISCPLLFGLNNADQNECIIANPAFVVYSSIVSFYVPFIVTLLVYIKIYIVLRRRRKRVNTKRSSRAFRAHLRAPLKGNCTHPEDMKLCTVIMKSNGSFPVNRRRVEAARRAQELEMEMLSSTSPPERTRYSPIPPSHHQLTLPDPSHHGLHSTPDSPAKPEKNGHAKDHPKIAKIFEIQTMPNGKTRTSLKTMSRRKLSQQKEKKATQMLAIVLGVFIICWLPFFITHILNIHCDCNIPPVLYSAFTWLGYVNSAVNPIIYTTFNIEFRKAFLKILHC
Chain of 5-hydroxytryptamine receptor 7 (P34969 whole entry): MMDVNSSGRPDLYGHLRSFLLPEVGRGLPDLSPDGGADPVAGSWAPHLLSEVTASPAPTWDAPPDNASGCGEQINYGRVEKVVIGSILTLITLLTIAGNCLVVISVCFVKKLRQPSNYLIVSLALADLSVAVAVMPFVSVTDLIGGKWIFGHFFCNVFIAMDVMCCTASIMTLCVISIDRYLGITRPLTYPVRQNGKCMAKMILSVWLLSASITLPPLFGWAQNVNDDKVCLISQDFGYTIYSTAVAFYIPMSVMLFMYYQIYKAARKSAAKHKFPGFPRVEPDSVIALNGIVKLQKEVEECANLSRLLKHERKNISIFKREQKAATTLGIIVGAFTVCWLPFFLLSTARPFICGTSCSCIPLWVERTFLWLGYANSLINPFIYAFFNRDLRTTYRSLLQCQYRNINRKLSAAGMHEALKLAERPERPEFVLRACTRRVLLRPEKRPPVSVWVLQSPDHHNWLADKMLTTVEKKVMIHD
Chain of 5-hydroxytryptamine receptor 1B (P28222 whole entry): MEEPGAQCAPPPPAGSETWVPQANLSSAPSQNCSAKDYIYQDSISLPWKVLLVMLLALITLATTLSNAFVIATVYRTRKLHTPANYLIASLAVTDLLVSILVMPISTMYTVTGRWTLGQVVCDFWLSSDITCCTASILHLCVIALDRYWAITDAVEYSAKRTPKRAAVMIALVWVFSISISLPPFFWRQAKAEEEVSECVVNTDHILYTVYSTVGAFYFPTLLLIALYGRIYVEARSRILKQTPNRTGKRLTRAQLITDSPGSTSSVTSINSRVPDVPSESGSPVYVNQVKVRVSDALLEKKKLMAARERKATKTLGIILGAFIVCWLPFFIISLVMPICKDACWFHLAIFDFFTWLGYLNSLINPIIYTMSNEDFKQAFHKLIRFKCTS

Activity [1]: inactive
Activity [2]: inactive
Ki [3]: 457 nM
Log Ki [4]: -5.74
CL/F [5]: 59 mL/min/kg
Vdss [6]: 10.7 L
half-life [7]: 2.8 h
bioavailability [8]: 11%
Kp [9]: 3.9
Drug uptake [10]: 320 ng/g
Ki [11]: > 3160 nM
Ki [12]: > 3160 nM
Ki [13]: 0.794 nM
Ki [14]: 631 nM
Ki [15]: 631 nM
Ki [16]: > 3160 nM
Ki [17]: > 3160 nM
Ki [18]: > 3160 nM
Structure (SMILES): COc1ccc(N2CC=C(c3ccc(Cl)c(Cl)c3)C2=O)cc1OCCN1CCCCC1
